For seven molecules, IC50 results are on record in ChEMBL document CHEMBL1139104, “Synthesis and evaluation of 4-O-alkylated 2-deoxy-2,3-didehydro-N-acetylneuraminic acid derivatives as inhibitors of human parainfluenza virus type-3 sialidase activity” (Bioorg Med Chem Lett, 2007).

The assay in a line: Inhibition of sialidase in Human parainfluenza virus 3 C243. Also on record: species or system Human respirovirus 3.
What is called IC50 is the concentration that gives 50% inhibition. Lower therefore signals inhibition by little substance. `CCCCCCCCCCO[C@H]1C=C(C(=O)O)O[C@@H]([C@H](O)[C@H](O)CO)[C@@H]1NC(C)=O` gave an IC50 of 10 µM.

The molecule `CC(=O)N[C@H]1[C@H]([C@H](O)[C@H](O)CO)OC(C(=O)O)=C[C@@H]1OCc1ccccc1` displayed an IC50 of 10 µM.

The molecule `CCO[C@H]1C=C(C(=O)O)O[C@@H]([C@H](O)[C@H](O)CO)[C@@H]1NC(C)=O` registered an IC50 of 3 µM. This IC50 is about 3.3-fold lower than that of the molecule before.

`CCCCCCO[C@H]1C=C(C(=O)O)O[C@@H]([C@H](O)[C@H](O)CO)[C@@H]1NC(C)=O` showed an IC50 of 5 µM.

In turn, `CC(=O)N[C@H]1[C@H]([C@H](O)[C@H](O)CO)OC(C(=O)O)=C[C@@H]1OCc1ccccc1-c1ccccc1` gave an IC50 of 30 µM.

The molecule `CC(=O)N[C@H]1[C@H]([C@H](O)[C@H](O)CO)OC(C(=O)O)=C[C@@H]1O` [NEU5AC2EN] registered an IC50 of 24 µM. This IC50 and that of the molecule before are within 1.5-fold of each other.

In turn, `CC(=O)N[C@H]1[C@H]([C@H](O)[C@H](O)CO)OC(C(=O)O)=C[C@@H]1NC(=N)N` [ZANAMIVIR] gave an IC50 of 25 µM.
